Data taken from BindingDB's records for doi:10.1021/jm000048n (Washington State University, 2000).

Legend:
Cytochrome P450 2C9 = Cytochrome P450 2C9 (Homo sapiens, UniProt P11712); assay: (§1) Binding affinity was measured on Cytochrome P450 2C9
[1] = target: {'v': 'CYP2C9', 'o': 'p', 'q': 'Cytochrome P450 2C9 (single_protein)'} (Homo sapiens, UniProt P11712); assay: as §1
Sequence of {'v': 'CYP2C9', 'o': 'p', 'q': 'Cytochrome P450 2C9 (single_protein)'} (P11712 whole entry): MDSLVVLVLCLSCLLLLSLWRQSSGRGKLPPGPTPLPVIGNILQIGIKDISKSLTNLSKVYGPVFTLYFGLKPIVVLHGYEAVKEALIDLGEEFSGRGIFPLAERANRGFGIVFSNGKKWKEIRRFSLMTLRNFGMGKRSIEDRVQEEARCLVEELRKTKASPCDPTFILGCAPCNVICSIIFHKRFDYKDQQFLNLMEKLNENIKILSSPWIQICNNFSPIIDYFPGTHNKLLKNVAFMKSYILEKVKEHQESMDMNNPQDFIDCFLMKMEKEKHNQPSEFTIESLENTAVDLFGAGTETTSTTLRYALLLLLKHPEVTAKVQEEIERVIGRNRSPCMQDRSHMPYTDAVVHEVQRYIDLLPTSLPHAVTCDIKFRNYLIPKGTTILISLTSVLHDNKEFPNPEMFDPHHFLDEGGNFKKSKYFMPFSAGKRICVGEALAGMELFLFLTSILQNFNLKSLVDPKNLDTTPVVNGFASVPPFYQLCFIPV

Sequence of Cytochrome P450 2C9 (P11712 whole entry): as above

Ki (Cytochrome P450 2C9): 500 nM
Ki [1]: 500 nM
Compound: CC[C@H](c1ccccc1)c1c(O)c2ccccc2oc1=O
